US12502338B2, “Dental glass ionomer cement” (GC Corporation, priority 2020, dated 2025)

Experiment: Water solubility / water insolubility by visual observation
Type: physicochemical
Settings: 0.4 g sample in 4 g distilled water, 20° C., 30 minutes
Protocol: As used herein and in the claims, a water-soluble compound means a compound having a solubility in water of 10 g/100 g H2O or more at 20° C.
4 g of distilled water and 0.4 g of a sample were sufficiently stirred at 20° C., allowed to stand for 30 minutes, and then visually observed. When white turbidity and biphasic separation were not observed, it was judged to be water soluble. When white turbidity or biphasic separation was observed, it was judged to be water insoluble.

Compound	water solubility / water insolubility
C=CC(=O)NCCO [HEAA, hydroxyethyl acrylamide]	WATER-SOLUBLE
C=C(C)C(=O)OCCO [HEMA, hydroxyethyl methacrylate]	WATER-SOLUBLE
C=C(C)C(=O)OCCOCCOCCOC(=O)C(=C)C [TEGDMA, triethylene glycol dimethacrylate]	WATER-SOLUBLE

More lines, now with the values ahead:

water solubility / water insolubility	Compound
WATER-SOLUBLE	C=C(C)C(=O)OCCOC(=O)NCCC(C)CC(C)(C)CNC(=O)OCCOC(=O)C(=C)C (centres unmarked) [UDMA, di-2-methacryloxyethyl-2,2,4-triethylhexamethylene dicarbamate]
WATER-SOLUBLE	isocyanuric acid EO-modified trimethacrylate [UA-7100]
